Reference: the OPERA property sets (Mansouri et al. 2018)

SMILES | logP
CC(=O)Nc1cccc(C(=O)O)c1 | 1.32
O=C(O)c1ccc(Cl)c(Cl)c1 | 3.25
[N-]=[N+]=Nc1ccc(C(=O)O)cc1 | 2.54
O=C(O)c1cc(Cl)ccc1Cl | 2.82

Results, then the compound that gave them:

logP | SMILES
1.03 | NCc1ccc(C(=O)O)cc1
1.28 | CN(C)c1ccc(C(=O)O)cc1
2.89 | CCc1ccc(C(=O)O)cc1
3.09 | CCCOc1ccc(C(=O)O)cc1
3.42 | CCCc1ccc(C(=O)O)cc1
1.76 | O=Cc1ccc(C(=O)O)cc1
